Common to all, as to type: cell-based
In experiment [1] the test system is Trypanosoma brucei Lister 427 VSG221 with APOL1 G2 recombinant protein. Kind of experiment: APOL1 G2 trypanosome cell rescue assay (Example B5). The settings on record: geometric mean of at least 2 assay runs, † = single assay run. A digest of the protocol:
(§1)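 Compounds in duplicate 2-fold, 11-point series with 0.4% DMSO final. Next, tag-free mature APOL1 variant protein went in from a 2 μg/mL solution, then trypanosomes to 250 per well. Plates incubated 20 h humidified at 37° C, equilibrated to room temperature, and CellTiter-Glo added for luminescence.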

Experiment [2] concerns Trypanosoma brucei Lister 427 VSG221 with APOL1 G1 recombinant protein. The experiment in a line: APOL1 G1 trypanosome cell rescue assay (Example B5). As to conditions: geometric mean of at least 2 assay runs, † = single assay run. A digest of the protocol:
as §1

Experiment [3] concerns HEK293 clonal cell line overexpressing APOL1 G1. The experiment in a line: APOL1 G1 HEK293 cell rescue assay (Example B3). The settings on record: geometric mean of at least 2 runs, † = single run, ¥ = concentration at 50% rescue estimated (no sigmoidal curve). A digest of the protocol: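 HEK293 clonal line overexpressing APOL1 G1; EC50 is half-maximal reversal of APOL1-induced cell death. Values are the geometric mean of ≥2 runs on separate days, each run the average of duplicate wells. Where no sigmoidal curve could be fitted, the concentration giving 50% rescue was estimated.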

Where [4] appears, read: Trypanosoma brucei, 20 h, read-out: APOL1 G2 Trypanosome Rescue EC50, Trypanosoma brucei Lister 427 VSG221 with APOL1 G2 recombinant protein, 20 hours, CellTiter-Glo.
Where [5] appears, read: Trypanosoma brucei, 20 h, read-out: APOL1 G1 Trypanosome Rescue EC50, Trypanosoma brucei Lister 427 VSG221 with APOL1 G1 recombinant protein, 20 hours, CellTiter-Glo.
Where [6] appears, read: Homo sapiens, HEK293, HEK293 clonal line overexpressing APOL1 G1.
Where [7] appears, read: read-out: APOL1 G2 Trypanosome Rescue EC50, Trypanosoma brucei Lister 427 VSG221 with APOL1 G2 recombinant protein, 20 hours, CellTiter-Glo.
Where [8] appears, read: read-out: APOL1 G1 Trypanosome Rescue EC50, Trypanosoma brucei Lister 427 VSG221 with APOL1 G1 recombinant protein, 20 hours, CellTiter-Glo.
[9] abbreviates: HEK293 clonal line overexpressing APOL1 G1.

For 20 compounds, EC50 results are on record in patent US12344610B2, “APOL1 inhibitors and methods of use” (Maze Therapeutics, Inc., priority 2022, dated 2025).

Each structure is given as a SMILES string. Where two headings read alike, the source gives them in different places.

In general, EC50 refers to the concentration that produces a half-maximal response.

On to `CC(c1ncc(OCCN2CCC3(CC2)C(=O)Nc2ccc(Cl)cc23)cn1)S(C)(=O)=O` (single isomer, unassigned) [Compound 2, 5-chloro-1′-[2-({2-[(1S) or (1R)-1-methanesulfonylethyl]pyrimidin-5-yl}oxy)ethyl]-1,2-dihydrospiro[indole-3,4′-piperidin]-2-one], for which the results for the half-maximal effective concentration (EC50) in experiment [1] (setting [4]), in experiment [2] (setting [5]) and in experiment [3] (setting [6]) were 56.3 nM, 191 nM and 346 nM, respectively.
With `CC(c1ncc(OCCN2CCC3(CC2)C(=O)Nc2ccc(Cl)cc23)cn1)S(C)(=O)=O` (single isomer, unassigned) [Compound 3, 5-chloro-1′-[2-({2-[(1R) or (1S)-1-methanesulfonylethyl]pyrimidin-5-yl}oxy)ethyl]-1,2-dihydrospiro[indole-3,4′-piperidin]-2-one], the EC50 in experiment [1] (setting [7]) is 92 nM; in experiment [2] (setting [8]), 323 nM; in experiment [3] (setting [9]), 257 nM.
Take `CC(O)c1ncc(OCCN2CCC3(CC2)C(=O)Nc2ccc(C#N)cc23)cc1C(F)(F)F` (single isomer, unassigned) [Compound 376, 1′-[2-({6-[(1S) or (1R)-1-hydroxyethyl]-5-(trifluoromethyl)pyridin-3-yl}oxy)ethyl]-2-oxo-1,2-dihydrospiro[indole-3,4′-piperidine]-5-carbonitrile]: the concentration giving a half-maximal response (EC50) in experiment [1] (setting [7]) was 39.9 nM; in experiment [2] (setting [8]), 115 nM; in experiment [3] (setting [6]), 129 nM.
Regarding `CC(O)c1ncc(OCCN2CCC3(CC2)C(=O)Nc2ccc(C#N)cc23)cc1C(F)(F)F` (single isomer, unassigned) [Compound 377, 1′-[2-({6-(1S) or (1R)-1-hydroxyethyl]-5-(trifluoromethyl)pyridin-3-yl}oxy)ethyl]-2-oxo-1,2-dihydrospiro[indole-3,4′-piperidine]-5-carbonitrile], the EC50 in experiment [1] (setting [7]) was 97.8 nM; in experiment [2] (setting [8]), 271 nM; in experiment [3] (setting [9]), 172 nM.
As to `CS(=O)(=O)C1(c2ncc(OCCN3CCC4(CC3)C(=O)Nc3ccc(C(F)F)cc34)cn2)CC1` [Compound 5, 5-(difluoromethyl)-1′-(2-{[2-(1-methanesulfonylcyclopropyl)pyrimidin-5-yl]oxy}ethyl)-1,2-dihydrospiro[indole-3,4′-piperidin]-2-one], the EC50 was 52 nM in experiment [1] (setting [4]), 171 nM in experiment [2] (setting [5]) and 295 nM in experiment [3] (setting [6]).
With `CS(=O)(=O)C1(c2ncc(OCCN3CCC4(CC3)C(=O)Nc3ccc(OC(F)F)cc34)cn2)CC1` [Compound 6, 5-(difluoromethoxy)-1′-(2-{[2-(1-methanesulfonylcyclopropyl)pyrimidin-5-yl]oxy}ethyl)-1,2-dihydrospiro[indole-3,4′-piperidin]-2-one], the EC50 is 137 nM in experiment [1] (setting [4]), 470 nM in experiment [2] (setting [5]) and 252 nM in experiment [3] (setting [6]).
In the same order, the values of `O=C1CCc2cc(OCCN3CCC4(CC3)C(=O)Nc3ccc(Cl)cc34)ccc2N1` [Compound 82, 5-chloro-1′-{2-[(2-oxo-1,2,3,4-tetrahydroquinolin-6-yl)oxy]ethyl}-1,2-dihydrospiro[indole-3,4′-piperidin]-2-one] are 113 nM, 344 nM and 252 nM.
Take `CS(=O)(=O)C1(c2c(F)cc(OCCN3CCC4(CC3)C(=O)Nc3ccc(C#N)cc34)cc2F)COC1` [Compound 84, 1′-{2-[3,5-difluoro-4-(3-methanesulfonyloxetan-3-yl)phenoxy]ethyl}-2-oxo-1,2-dihydrospiro[indole-3,4′-piperidine]-5-carbonitrile]: the results for the EC50 in experiment [1] (setting [4]), in experiment [2] (setting [5]) and in experiment [3] (setting [6]) were 50 nM, 144 nM and 233 nM, respectively.
`O=C1Nc2ccc(Cl)cc2C12CCN(CCOc1ccc3c(cnn3[C@H]3C[C@@H](O)C3)c1)CC2` [Compound 85, 5-chloro-1′-[2-({1-[(cis)-3-hydroxycyclobutyl]-1H-indazol-5-yl}oxy)ethyl]-1,2-dihydrospiro[indole-3,4′-piperidin]-2-one]: the concentration for a half-maximal effect (EC50) in experiment [1] (setting [4]) was 48.5 nM; in experiment [2] (setting [5]), 190 nM; in experiment [3] (setting [6]) it was 157 nM.
In the same order, the values of `O=C1Nc2ccc(Cl)cc2C12CCN(CCOc1ccc3c(cnn3[C@H]3C[C@H](O)C3)c1)CC2` [Compound 86, 5-chloro-1′-[2-({1-[(trans)-3-hydroxycyclobutyl]-1H-indazol-5-yl}oxy)ethyl]-1,2-dihydrospiro[indole-3,4′-piperidin]-2-one] are 38.4 nM, 137 nM and 126 nM.
Turning to `O=C1Nc2ccc(Cl)cc2C12CCN(CCOc1ccc3[nH]ncc3c1)CC2` [Compound 87, 5-chloro-1′-[2-(2H-indazol-5-yloxy)ethyl]-1,2-dihydrospiro[indole-3,4′-piperidin]-2-one], the results for the 50% effective concentration (EC50) in experiment [1] (setting [4]), in experiment [2] (setting [5]) and in experiment [3] (setting [6]) were 95.8 nM, 383 nM and 281 nM, respectively.
For `Cn1c(=O)[nH]c2cc(OCCN3CCC4(CC3)C(=O)Nc3ccc(Cl)cc34)ccc21` [Compound 88, 5-chloro-1′-{2-[(1-methyl-2-oxo-2,3-dihydro-1H-1,3-benzodiazol-5-yl)oxy]ethyl}-1,2-dihydrospiro[indole-3,4′-piperidin]-2-one] the same measures were 138 nM, 561 nM and 438 nM.
In the same order, the values of `CS(=O)(=O)c1c(F)cc(OCCN2CCC3(CC2)C(=O)Nc2ccc(Cl)cc23)cc1F` [Compound 89, 5-chloro-1′-[2-(3,5-difluoro-4-methanesulfonylphenoxy)ethyl]-1,2-dihydrospiro[indole-3,4′-piperidin]-2-one] are 32.7 nM, 114 nM and 138 nM.
For `CS(=O)(=O)c1c(F)cc(OCCN2CCC3(CC2)C(=O)Nc2ccc(C#N)cc23)cc1F` [Compound 90, 1′-[2-(3,5-difluoro-4-methanesulfonylphenoxy)ethyl]-2-oxo-1,2-dihydrospiro[indole-3,4′-piperidine]-5-carbonitrile] the same measures were 163 nM, 679 nM and 594 nM.
Turning to `COC(=O)C1(S(=O)(=O)c2ccc(OCCN3CCC4(CC3)C(=O)Nc3ccc(Cl)cc34)cc2)CC1` [Compound 91, methyl 1-[4-(2-{5-chloro-2-oxo-1,2-dihydrospiro[indole-3,4′-piperidin]-1′-yl}ethoxy)benzenesulfonyl]cyclopropane-1-carboxylate], the EC50 in experiment [1] (setting [4]) was 20.4 nM; in experiment [2] (setting [5]) it was 82.7 nM; in experiment [3] (setting [6]), 99 nM.
For `CC1(S(=O)(=O)c2ccc(OCCN3CCC4(CC3)C(=O)Nc3ccc(Cl)cc34)cc2)COC1` [Compound 92, 5-chloro-1′-(2-{4-[(3-methyloxetan-3-yl)sulfonyl]phenoxy}ethyl)-1,2-dihydrospiro[indole-3,4′-piperidin]-2-one] the same measures were 28.5 nM, 99.3 nM and 101 nM.
For `CC1(S(=O)(=O)c2ccc(OCCN3CCC4(CC3)C(=O)Nc3ccc(C#N)cc34)cc2)COC1` [Compound 93, 1′-(2-{4-[(3-methyloxetan-3-yl)sulfonyl]phenoxy}ethyl)-2-oxo-1,2-dihydrospiro[indole-3,4′-piperidine]-5-carbonitrile] the same measures were 56.9 nM, 264 nM and 230 nM.
In the same order, the values of `CS(=O)(=O)N1CCc2cc(OCCN3CCC4(CC3)C(=O)Nc3ccc(Cl)cc34)ccc2C1` [Compound 94, 5-chloro-1′-{2-[(2-methanesulfonyl-1,2,3,4-tetrahydroisoquinolin-6-yl)oxy]ethyl}-1,2-dihydrospiro[indole-3,4′-piperidin]-2-one] are 129 nM, 424 nM and 210 nM.
On to `CN1C(=O)CCc2cc(OCCN3CCC4(CC3)C(=O)Nc3ccc(C#N)cc34)ccc21` [Compound 95, 1′-{2-[(1-methyl-2-oxo-1,2,3,4-tetrahydroquinolin-6-yl)oxy]ethyl}-2-oxo-1,2-dihydrospiro[indole-3,4′-piperidine]-5-carbonitrile], for which the concentration for a half-maximal effect (EC50) in experiment [1] (setting [4]) was 222 nM; in experiment [2] (setting [5]), 703 nM; in experiment [3] (setting [6]), 457 nM.
For `CC(C)N1C(=O)CCc2cc(OCCN3CCC4(CC3)C(=O)Nc3ccc(C#N)cc34)ccc21` [Compound 96, 2-oxo-1′-(2-{[2-oxo-1-(propan-2-yl)-1,2,3,4-tetrahydroquinolin-6-yl]oxy}ethyl)-1,2-dihydrospiro[indole-3,4′-piperidine]-5-carbonitrile] the same measures were 53 nM, 143 nM and 148 nM.
